In ChEMBL document CHEMBL1126629 (J Med Chem, 1993):

Key:
[1] = biological target: Sodium-dependent serotonin transporter (Homo sapiens, UniProt P31645); assay: Ability to inhibit [3H]citalopram binding to serotonin transporter in cynomolgus monkey striatum; type: tissue-based, Cercopithecidae; conditions: target entry is the homologue from another species
[2] = Selectivity ratio is IC 50 value of dopamine receptor to that of serotonin 5-HT

Chain of Sodium-dependent serotonin transporter (P31645 whole entry): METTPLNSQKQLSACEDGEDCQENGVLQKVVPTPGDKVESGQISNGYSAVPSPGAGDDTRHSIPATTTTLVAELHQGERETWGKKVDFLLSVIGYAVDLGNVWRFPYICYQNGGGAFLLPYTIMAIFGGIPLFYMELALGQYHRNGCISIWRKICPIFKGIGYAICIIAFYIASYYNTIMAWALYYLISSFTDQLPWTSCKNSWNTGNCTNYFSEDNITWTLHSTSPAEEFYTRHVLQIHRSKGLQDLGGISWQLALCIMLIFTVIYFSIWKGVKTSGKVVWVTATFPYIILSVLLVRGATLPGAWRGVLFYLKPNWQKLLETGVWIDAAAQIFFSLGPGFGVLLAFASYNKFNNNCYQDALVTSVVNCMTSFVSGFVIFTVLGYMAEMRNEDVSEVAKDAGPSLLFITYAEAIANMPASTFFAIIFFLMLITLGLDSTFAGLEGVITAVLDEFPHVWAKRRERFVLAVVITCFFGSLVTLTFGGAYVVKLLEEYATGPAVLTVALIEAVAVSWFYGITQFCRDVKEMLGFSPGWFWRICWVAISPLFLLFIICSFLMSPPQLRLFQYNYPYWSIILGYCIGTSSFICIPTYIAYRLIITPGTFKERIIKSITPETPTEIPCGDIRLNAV

Compound	IC50 [1]	Selectivity ratio [2]
COC(=O)[C@H]1[C@@H](c2ccc(F)cc2)C[C@H]2CC[C@H]1N2C	160 nM	–
COC(=O)C1C2CCC(CC1c1ccc(Cl)cc1)N2 (configuration not stated)	1.63 nM	1
COC(=O)C1C(c2ccc(Cl)c(Cl)c2)CC2CCC1N2C (configuration not stated)	2.47 nM	2
COC(=O)C1C2CCC(CC1c1ccc(Cl)c(Cl)c1)N2 (configuration not stated)	1.4 nM	–
COC(=O)C1C(c2ccc(I)cc2)CC2CCC1N2C (configuration not stated)	2.53 nM	2
COC(=O)C1C(c2cccc(Br)c2)CC2CCC1N2C (configuration not stated)	20.4 nM	3
COC(=O)C1C(c2cccc(I)c2)CC2CCC1N2C (configuration not stated)	9.88 nM	0.4
